One experiment deals with Staphylococcus aureus. Nature of the experiment: Antibacterial activity. The class given is cell-based.
The subject of the next experiment is Propionibacterium acnes. Nature of the experiment: Antibacterial activity. It counts as cell-based.

Regarding `CC1(C)CC(C)(C)CC(C)(N)C1` [neramexane, 1-amino-1,3,3,5,5-pentamethylcyclohexane], the antibacterial activity entry in the experiment with Staphylococcus aureus and in the experiment on Propionibacterium acnes was “exhibits antibacterial activity” in each case.

These data come from patent publication US20130165522A1, “GEL FORMULATIONS FOR THE TOPICAL USE OF 1-AMINO-ALKYLCYCLOHEXANE DERIVATIVES” (MERZ PHARMA GmbH & CO. KGaA, priority 2010, published 2013).
